Tested on: 475296-252-R-J1-PDC spheroid viability
Test: Anticancer human tumor 475296-252-R-J1-PDC patient-derived rectal carcinoma cell line growth inhibition [PI3K]
Conditions: spheroids with HUVEC and MSC; for IC50: curve of first compound; for viability, T/C: stronger effect = lower value
How it was run: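 Tumor cells grown as multi-cell spheroids with HUVEC endothelial cells and MSC fibroblast-like stroma were treated with targeted agents combined with inavolisib, alpelisib, duvelisib or copanlisib. Doses fell in half-log steps from near clinical Cmax, else from 10 microM. Viability was measured.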

[1] = second compound 0.0316 µM, first compound 0.0316 µM
[2] = second compound 0.0316 µM, first compound 0.1 µM
[3] = second compound 0.0316 µM, first compound 0.316 µM
[4] = second compound 0.0316 µM, first compound 1 µM
[5] = second compound 0.0316 µM, first compound 3.16 µM
[6] = second compound 0.0316 µM, first compound 10 µM
[7] = second compound 0.1 µM, first compound 0.0316 µM
[8] = second compound 0.1 µM, first compound 0.1 µM
[9] = second compound 0.1 µM, first compound 0.316 µM
[10] = second compound 0.1 µM, first compound 1 µM
[11] = second compound 0.1 µM, first compound 3.16 µM
[12] = second compound 0.1 µM, first compound 10 µM
[13] = second compound 0.316 µM, first compound 0.0316 µM
[14] = second compound 0.316 µM, first compound 0.1 µM
[15] = second compound 0.316 µM, first compound 0.316 µM
[16] = second compound 0.316 µM, first compound 1 µM
[17] = second compound 0.316 µM, first compound 3.16 µM
[18] = second compound 0.316 µM, first compound 10 µM
[19] = second compound 1 µM, first compound 0.0316 µM
[20] = second compound 1 µM, first compound 0.1 µM
[21] = second compound 1 µM, first compound 0.316 µM
[22] = second compound 1 µM, first compound 1 µM
[23] = second compound 1 µM, first compound 3.16 µM
[24] = second compound 1 µM, first compound 10 µM
[25] = second compound 3.16 µM, first compound 0.0316 µM
[26] = second compound 3.16 µM, first compound 0.1 µM
[27] = second compound 3.16 µM, first compound 0.316 µM
[28] = second compound 3.16 µM, first compound 1 µM
[29] = second compound 3.16 µM, first compound 3.16 µM
[30] = second compound 3.16 µM, first compound 10 µM
[31] = second compound 10 µM, first compound 0.0316 µM
[32] = second compound 10 µM, first compound 0.1 µM
[33] = second compound 10 µM, first compound 0.316 µM
[34] = second compound 10 µM, first compound 1 µM
[35] = second compound 10 µM, first compound 3.16 µM
[36] = second compound 10 µM, first compound 10 µM
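Also: spheroids exposed to agents for seven days before readout.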

With `C=CC(=O)N1CCN(c2nc(=O)n(-c3c(C)ccnc3C(C)C)c3nc(-c4c(O)cccc4F)c(F)cc23)C(C)C1` (stereo not drawn) + CC(Nc1ncnc2nc[nH]c12)c1cc2cccc(Cl)c2c(=O)n1-c1ccccc1 the IC50 (second compound 0.0316 µM) was over 10 µM, the IC50 (second compound 0.1 µM) was over 10 µM and the IC50 (second compound 0.316 µM) was over 10 µM. The IC50 (second compound 1 µM) was over 10 µM, the IC50 (second compound 3.16 µM) was over 10 µM and the IC50 (second compound 10 µM) was over 10 µM. The viability, T/C [1] was 110%, the viability, T/C [2] was 98.7% and the viability, T/C [3] was 103%. It also gave a viability, T/C [4] of 89%, a viability, T/C [5] of 102% and a viability, T/C [6] of 103%. It also gave a viability, T/C [7] of 95.7%, a viability, T/C [8] of 92% and a viability, T/C [9] of 105%. For the same compound, the viability, T/C [10] was 87.9%, the viability, T/C [11] was 109% and the viability, T/C [12] was 101%. It also gave a viability, T/C [13] of 93.9%, a viability, T/C [14] of 90.2% and a viability, T/C [15] of 87.4%. The viability, T/C [16] was 96%, the viability, T/C [17] was 106% and the viability, T/C [18] was 116%. The viability, T/C [19] was 95.3%, the viability, T/C [20] was 97.2% and the viability, T/C [21] was 91.8%. It also gave a viability, T/C [22] of 92.1%, a viability, T/C [23] of 106% and a viability, T/C [24] of 93.5%. For the same compound, the viability, T/C [25] was 96.2%, the viability, T/C [26] was 92.9% and the viability, T/C [27] was 99.4%. For the same compound, the viability, T/C [28] was 107%, the viability, T/C [29] was 103% and the viability, T/C [30] was 90.2%. For the same compound, the viability, T/C [31] was 83.8%, the viability, T/C [32] was 91.9% and the viability, T/C [33] was 86.9%. For the same compound, the viability, T/C [34] was 80.7%, the viability, T/C [35] was 95.8% and the viability, T/C [36] was 95.6%.
With `CCN1CCN(Cc2ccc(Nc3ncc(F)c(-c4cc(F)c5nc(C)n(C(C)C)c5c4)n3)nc2)CC1` + CC(Nc1ncnc2nc[nH]c12)c1cc2cccc(Cl)c2c(=O)n1-c1ccccc1 the IC50 (second compound 0.0316 µM) was over 1 µM, the IC50 (second compound 0.1 µM) was over 1 µM and the IC50 (second compound 0.316 µM) was over 1 µM. It also gave an IC50 (second compound 1 µM) of over 1 µM, an IC50 (second compound 3.16 µM) of over 1 µM and an IC50 (second compound 10 µM) of over 1 µM. It also gave a viability, T/C (second compound 0.0316 µM, first compound 0.00316 µM) of 87%, a viability, T/C (second compound 0.0316 µM, first compound 0.01 µM) of 101% and a viability, T/C [1] of 99.6%. It also gave a viability, T/C [2] of 86.1%, a viability, T/C [3] of 104% and a viability, T/C [4] of 92%. It also gave a viability, T/C (second compound 0.1 µM, first compound 0.00316 µM) of 87.8%, a viability, T/C (second compound 0.1 µM, first compound 0.01 µM) of 90.9% and a viability, T/C [7] of 103%. It also gave a viability, T/C [8] of 102%, a viability, T/C [9] of 105% and a viability, T/C [10] of 89.1%. It also gave a viability, T/C (second compound 0.316 µM, first compound 0.00316 µM) of 95.1%, a viability, T/C (second compound 0.316 µM, first compound 0.01 µM) of 102% and a viability, T/C [13] of 98.3%. It also gave a viability, T/C [14] of 101%, a viability, T/C [15] of 89.4% and a viability, T/C [16] of 81.2%. For the same compound, the viability, T/C (second compound 1 µM, first compound 0.00316 µM) was 102%, the viability, T/C (second compound 1 µM, first compound 0.01 µM) was 92.3% and the viability, T/C [19] was 93.8%. It also gave a viability, T/C [20] of 98.5%, a viability, T/C [21] of 94.6% and a viability, T/C [22] of 75.1%. For the same compound, the viability, T/C (second compound 3.16 µM, first compound 0.00316 µM) was 87.2%, the viability, T/C (second compound 3.16 µM, first compound 0.01 µM) was 99.3% and the viability, T/C [25] was 85.1%. The viability, T/C [26] was 102%, the viability, T/C [27] was 92.1% and the viability, T/C [28] was 79.5%. The viability, T/C (second compound 10 µM, first compound 0.00316 µM) was 95.5%, the viability, T/C (second compound 10 µM, first compound 0.01 µM) was 82.4% and the viability, T/C [31] was 87.4%. The viability, T/C [32] was 101%, the viability, T/C [33] was 96.9% and the viability, T/C [34] was 70.5%.
`Cn1ncc(Cl)c1-c1cc(C(=O)NC(CN)Cc2cccc(F)c2)sc1Cl` (stereo not drawn) + CC(Nc1ncnc2nc[nH]c12)c1cc2cccc(Cl)c2c(=O)n1-c1ccccc1 was tested, and the IC50 (second compound 0.0316 µM) was over 10 µM, the IC50 (second compound 0.1 µM) was over 10 µM and the IC50 (second compound 0.316 µM) was over 10 µM. The IC50 (second compound 1 µM) was over 10 µM, the IC50 (second compound 3.16 µM) was over 10 µM and the IC50 (second compound 10 µM) was over 10 µM. For the same compound, the viability, T/C [1] was 101%, the viability, T/C [2] was 83.3% and the viability, T/C [3] was 60.1%. The viability, T/C [4] was 71.5%, the viability, T/C [5] was 71.7% and the viability, T/C [6] was 61.5%. The viability, T/C [7] was 95.7%, the viability, T/C [8] was 80% and the viability, T/C [9] was 64.9%. It also gave a viability, T/C [10] of 63.6%, a viability, T/C [11] of 70.2% and a viability, T/C [12] of 57%. The viability, T/C [13] was 90.5%, the viability, T/C [14] was 77.6% and the viability, T/C [15] was 56.5%. It also gave a viability, T/C [16] of 65.4%, a viability, T/C [17] of 59.8% and a viability, T/C [18] of 57.6%. For the same compound, the viability, T/C [19] was 87.5%, the viability, T/C [20] was 74.7% and the viability, T/C [21] was 58.2%. It also gave a viability, T/C [22] of 60.5%, a viability, T/C [23] of 55.6% and a viability, T/C [24] of 62.1%. For the same compound, the viability, T/C [25] was 87%, the viability, T/C [26] was 80.4% and the viability, T/C [27] was 51.4%. The viability, T/C [28] was 50.9%, the viability, T/C [29] was 60.7% and the viability, T/C [30] was 52.1%. The viability, T/C [31] was 92.3%, the viability, T/C [32] was 77% and the viability, T/C [33] was 60.5%. It also gave a viability, T/C [34] of 58.8%, a viability, T/C [35] of 62.8% and a viability, T/C [36] of 46.7%.
In the case of `Cn1nccc1Nc1nccc(-c2ccn(C(CO)c3ccc(Cl)c(F)c3)c(=O)c2)n1` (stereo not drawn) + CC(Nc1ncnc2nc[nH]c12)c1cc2cccc(Cl)c2c(=O)n1-c1ccccc1, the IC50 (second compound 0.0316 µM) is reported as over 10 µM, the IC50 (second compound 0.1 µM) is reported as over 10 µM and the IC50 (second compound 0.316 µM) is reported as over 10 µM. The IC50 (second compound 1 µM) was over 10 µM, the IC50 (second compound 3.16 µM) was over 10 µM and the IC50 (second compound 10 µM) was over 10 µM. For the same compound, the viability, T/C [1] was 94.3%, the viability, T/C [2] was 102% and the viability, T/C [3] was 89.8%. The viability, T/C [4] was 92.2%, the viability, T/C [5] was 92.9% and the viability, T/C [6] was 70.7%. It also gave a viability, T/C [7] of 90.2%, a viability, T/C [8] of 91.3% and a viability, T/C [9] of 96.1%. The viability, T/C [10] was 86.9%, the viability, T/C [11] was 80.7% and the viability, T/C [12] was 77.4%. For the same compound, the viability, T/C [13] was 93.4%, the viability, T/C [14] was 95.2% and the viability, T/C [15] was 101%. It also gave a viability, T/C [16] of 92.8%, a viability, T/C [17] of 86.9% and a viability, T/C [18] of 65.5%. The viability, T/C [19] was 97.8%, the viability, T/C [20] was 97.7% and the viability, T/C [21] was 98.5%. For the same compound, the viability, T/C [22] was 89.2%, the viability, T/C [23] was 93.6% and the viability, T/C [24] was 59.1%. It also gave a viability, T/C [25] of 97.4%, a viability, T/C [26] of 96.8% and a viability, T/C [27] of 89.2%. It also gave a viability, T/C [28] of 80.4%, a viability, T/C [29] of 82.2% and a viability, T/C [30] of 59.1%. It also gave a viability, T/C [31] of 90.9%, a viability, T/C [32] of 80.6% and a viability, T/C [33] of 91.2%. For the same compound, the viability, T/C [34] was 83.6%, the viability, T/C [35] was 76.4% and the viability, T/C [36] was 54.9%.
